Assay results taken from patent US7579469B2, “Glucocorticoid mimetics, methods of making them, pharmaceutical compositions, and uses thereof” (Boehringer Ingelheim Pharmaceuticals, Inc., priority 2003, dated 2009).

How the values were obtained:
[1] = test system: Osteocalcin Production from Osteoblast Cell Line MG-63; assay: Inhibition of osteocalcin production from osteoblast cell line MG-63; format: cell-based, human; conditions: MG-63 cells, Vitamin D 10 nM, 48 hours, osteocalcin ELISA
Protocol: Representative compounds of the invention have been tested and have shown activity as modulators of the glucocorticoid receptor function in one or more of the above assays. […] 7. Inhibition of Osteocalcin Production from Osteoblast Cell Line MG-63
Human osteosarcoma MG-63 cells (ATCC, Cat. No. CRL-1427) are plated on 96 well plates at 20,000 cells per well the day before use in 200 μL media of 99% D-MEM/F-12 (Gibco-Invitrogen, Cat. No. 11039-021), supplemented with 1% penicillin and streptomycin (Gibco-Invitrogen, Cat. No. 15140-122), 10 μg/mL Vitamin C (Sigma, Cat. No. A4544), and 1% charcoal filtered Fetal Bovine Serum (HyClone, Cat. No. SH30068.02). The next day, wells are replaced with fresh media. Cells are treated with Vitamin D (Sigma, Cat. No. D1530) to a final concentration of 10 nM, and with the test compounds in concentrations of 10^−6 M to 10^−9 M, in a total volume of 200 μL per well. Samples are done in duplicates. […] Positive control wells receive Vitamin D only, without compounds, and represent maximum (100%) amount of osteocalcin production. Plates are incubated at 37° C. incubator for 48 hours and supernatants are harvested at the end of incubation. Amounts of osteocalcin in the supernatants are determined by the Glype osteocalcin ELISA kit (Zymed, Cat. No. 99-0054) according to manufacture's protocol. Inhibition of osteocalcin by test compounds is expressed in percentage relative to positive controls. IC50 values of the test compounds are derived by non-lineal curve fitting.

[2] = biological target: T1, human glucocorticoid receptor (GR) complex (Homo sapiens, UniProt P04150); assay: Glucocorticoid receptor competitive binding assay (fluorescence polarization); conditions: competition with TAMRA-labeled dexamethasone
T1 construct: made in house; host or cells: insect expression system (baculovirus lysate)
T1 sequence (P04150 1-777): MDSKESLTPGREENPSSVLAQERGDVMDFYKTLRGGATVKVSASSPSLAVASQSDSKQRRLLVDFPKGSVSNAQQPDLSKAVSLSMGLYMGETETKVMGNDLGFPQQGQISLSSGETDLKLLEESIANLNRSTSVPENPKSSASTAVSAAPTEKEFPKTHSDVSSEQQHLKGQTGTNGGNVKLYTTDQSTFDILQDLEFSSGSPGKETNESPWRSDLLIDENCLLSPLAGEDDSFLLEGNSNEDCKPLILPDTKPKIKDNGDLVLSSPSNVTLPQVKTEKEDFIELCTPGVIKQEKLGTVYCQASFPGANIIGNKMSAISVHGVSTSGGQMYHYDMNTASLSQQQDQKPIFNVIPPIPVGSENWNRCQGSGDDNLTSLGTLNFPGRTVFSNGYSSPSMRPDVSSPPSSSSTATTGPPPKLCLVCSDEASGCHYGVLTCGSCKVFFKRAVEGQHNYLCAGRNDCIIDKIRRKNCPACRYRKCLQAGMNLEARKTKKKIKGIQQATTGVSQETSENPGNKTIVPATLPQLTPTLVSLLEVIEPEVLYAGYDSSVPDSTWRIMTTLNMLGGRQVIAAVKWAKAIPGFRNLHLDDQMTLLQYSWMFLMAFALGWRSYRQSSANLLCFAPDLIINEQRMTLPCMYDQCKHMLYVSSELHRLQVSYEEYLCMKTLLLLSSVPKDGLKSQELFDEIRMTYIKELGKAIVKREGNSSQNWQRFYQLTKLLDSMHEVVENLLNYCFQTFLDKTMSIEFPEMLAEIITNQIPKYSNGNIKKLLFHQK
How it was run: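 Fluorescence polarization competition against TAMRA-labelled dexamethasone (50 μL of 15 nM added) for human GR complex from baculovirus insect-cell lysate, diluted 1:170, in TES/KCl/molybdate buffer, pH 7.4.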

| SMILES | activity in the GR binding assay [2] | melting point [°C] | inhibit the vitamin D stimulated production of osteocalcin [1] |
| --- | --- | --- | --- |
| CC(C)(CC(O)(Cn1ccc(=O)c2ccccc21)C(F)(F)F)c1cccc(-c2ccccc2)c1 (stereo not shown) [1-(4-Biphenyl-3-yl-2-hydroxy-4-methyl-2-trifluoromethylpentyl)-1H-quinolin-4-one] | – | – | inhibit |
| CC(C)(CC(O)(Cn1ccc(=O)c2ccc(F)cc21)C(F)(F)F)c1cc(F)ccc1O (stereo not shown) [7-Fluoro-1-[4-(5-fluoro-2-hydroxyphenyl)-2-hydroxy-4-methyl-2-trifluoromethylpentyl]-1H-quinolin-4-one] | potent activity | – | inhibit |
| COc1ccc(F)cc1C(C)(C)CC(O)(Cn1[nH]c(=O)c2ccccc21)C(F)(F)F (stereo not shown) [Example 23, 1-[4-(5-fluoro-2-methoxyphenyl)-2-hydroxy-4-methyl-2-trifluoromethylpentyl]-1,2-dihydroindazol-3-one] | – | 141 to 144 | – |
| COc1ccc(F)cc1C(C)(C)CC(O)(Cn1cc(C)c(=O)c2ccccc21)C(F)(F)F (stereo not shown) [Example 26, 1-[4-(5-fluoro-2-methoxyphenyl)-2-hydroxy-4-methyl-2-trifluoromethylpentyl]-3-methyl-1H-quinolin-4-one] | – | > 225 | – |

More lines, main results first:

| activity in the GR binding assay [2] | melting point [°C] | SMILES | inhibit the vitamin D stimulated production of osteocalcin [1] |
| --- | --- | --- | --- |
| potent activity | – | CC(C)(CC(O)(Cn1ccc(=O)c2ccccc21)C(F)(F)F)c1cc(S(C)(=O)=O)cc2c1OCC2 (stereo not shown) [1-[2-Hydroxy-4-(5-methanesulfonyl-2,3-dihydrobenzofuran-7-yl)-4-methyl-2-trifluoromethylpentyl]-1H-quinolin-4-one] | inhibit |
| potent activity | – | CC(C)(CC(O)(Cn1ccc(=O)c2ccccc21)C(F)(F)F)c1cc(Br)cc2c1OCC2 (stereo not shown) [1-[4-(5-Bromo-2,3-dihydrobenzofuran-7-yl)-2-hydroxy-4-methyl-2-trifluoromethylpentyl]-1H-quinolin-4-one] | inhibit |
| potent activity | – | CC(C)(CC(O)(Cn1ccc(=O)c2ccccc21)C(F)(F)F)c1cc(F)ccc1O (stereo not shown) [1-[4-(5-Fluoro-2-hydroxyphenyl)-2-hydroxy-4-methyl-2-trifluoromethylpentyl]-1H-quinolin-4-one] | inhibit |
| – | 195 to 196 | CCOc1ccc(F)cc1C(C)(C)CC(O)(Cn1ccc(=O)c2ccccc21)C(F)(F)F (stereo not shown) [Example 27, 1-[4-(2-ethoxy-5-fluorophenyl)-2-hydroxy-4-methyl-2-trifluoromethylpentyl]-1H-quinolin-4-one] | – |
| – | 150 to 155 | CC(C)(CC(O)(Cn1ccc(=O)c2ccccc21)C(F)(F)F)c1cc(F)ccc1OC(F)F (stereo not shown) [Example 28, 1-[4-(2-difluoromethoxy-5-fluorophenyl)-2-hydroxy-4-methyl-2-trifluoromethylpentyl]-1H-quinolin-4-one] | – |
